The source of these data is ChEMBL document CHEMBL1201862, “PubChem BioAssay data set” (2004).

SMILES strings stand for the structures.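 How tested: cells in 96-well plates exposed to compound for 48 hours at five concentrations. GI50 marks 50% less growth.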 Activity calls are given as the source filed them. Rule as the data show it: active = GI50 up to about 1.1 µM and inactive = higher. Where a SMILES comes first, the peptide text is derived from it. [ ]: non-standard residue; d: D form. The star is where a group is joined. ξ: configuration not given here. Propanoyl(3-(4-MeO-Ph)) = COc1ccc(CCC(=O)*)cc1; Thr(3ξ) = CC(O)[C@H](N)C(=O)O; dNMeL = CN[C@H](CC(C)C)C(=O)O; OBn = c1ccc(CO*)cc1; ξLac = CC(O)C(=O)O

Some test systems named below: CAKI-1; HCC 2998; HCT-116; HCT-15; HL-60; HOP-92; K562; KM12; MOLT-4; NCI-H23; NCI-H460; NCI/ADR-RES; OVCAR-5; RPMI-8226; SF-268; SN12C; SNB-19; SW-620; UACC-257; UACC-62.
Holding throughout (assay): NCI tumour cell line growth inhibition, 48 h

Consider `CC1(C)OC(=S)N(c2ccccc2)C12C=Cc1cc3ccccc3cc1O2` (stereo not given), for which the GI50 was > 100 µM (inactive) with CAKI-1; > 100 µM (inactive) in the assay with HCC 2998; > 100 µM (inactive) in the assay on HCT-116; more than 100 µM with HCT-15; 16.6 µM (inactive) with HL-60; > 100 µM (inactive) in the assay on HOP-92. Moreover, the GI50 with K562 is 41.3 µM (inactive); with KM12 it was > 100 µM (inactive); in the assay with MOLT-4, > 100 µM (inactive); in the assay on NCI-H23, > 100 µM (inactive); with NCI-H460 it was > 100 µM (inactive); in the assay with NCI/ADR-RES, > 100 µM (inactive). Also, the GI50 with OVCAR-5 was > 100 µM (inactive); in the assay on RPMI-8226, 92 µM (inactive); in the assay on SF-268, > 100 µM (inactive); with SN12C it was > 100 µM (inactive); in the assay with SNB-19, > 100 µM (inactive); in the assay with SW-620, > 100 µM (inactive). Further, the GI50 in the assay with UACC-257 and in the assay with UACC-62 was > 100 µM (inactive) throughout.
With `Cc1cc(NS(=O)(=O)c2ccc(NC(=O)c3ccc4nc5ccccc5c(Nc5ccc(S(=O)(=O)Nc6cc(C)on6)cc5)c4c3)cc2)no1`, the GI50 with CAKI-1 is > 50 µM (inactive); in the assay with HCC 2998 it was > 50 µM (inactive); in the assay with HCT-116, > 50 µM (inactive); in the assay with HCT-15, more than 50 µM; with HL-60, > 50 µM (inactive); in the assay on HOP-92, > 50 µM (inactive). Further, the GI50 with K562, with KM12, in the assay with MOLT-4, with NCI-H23, in the assay on NCI-H460 and in the assay on NCI/ADR-RES was > 50 µM (inactive) in each case. The GI50 in the assay with OVCAR-5, in the assay with RPMI-8226, in the assay on SF-268, in the assay with SN12C, with SNB-19 and in the assay on SW-620 was > 50 µM (inactive) each time. Further, the GI50 in the assay with UACC-257 and in the assay on UACC-62 was > 50 µM (inactive) each time.
`Clc1ccc(-c2cc(-c3cc4cc(Br)ccc4nc3Cl)on2)cc1`: the GI50 is 10.9 µM (inactive) in the assay with CAKI-1; 10.3 µM (inactive) in the assay on HCC 2998; 12.2 µM (inactive) with HCT-116; 16.2 µM in the assay on HCT-15; 1.7 µM (inactive) in the assay with HL-60; 27.9 µM (inactive) in the assay with HOP-92. Also, the GI50 was 15.1 µM (inactive) in the assay with K562; 15.5 µM (inactive) with KM12; 14.1 µM (inactive) with MOLT-4; 17.1 µM (inactive) with NCI-H23; 10.1 µM (inactive) with NCI-H460; 14.9 µM (inactive) with NCI/ADR-RES. Besides, the GI50 with OVCAR-5 is 1.4 µM (inactive); in the assay with RPMI-8226, 15.4 µM (inactive); in the assay on SF-268 it was 13.4 µM (inactive); in the assay with SN12C, 16.1 µM (inactive); in the assay with SNB-19, 26.7 µM (inactive); in the assay on SW-620 it was 10.4 µM (inactive). In addition, the GI50 in the assay on UACC-257 is 13 µM (inactive); in the assay on UACC-62, 14.5 µM (inactive).
Consider `O=C1CSC(c2cc3cc(Br)ccc3nc2Cl)N1c1ccc(F)c(Cl)c1` (stereo not given), for which the GI50 in the assay on CAKI-1 is > 50 µM (inactive); in the assay with HCC 2998, > 50 µM (inactive); in the assay on HCT-116 it was > 50 µM (inactive); in the assay on HCT-15 it was 33 µM; with HL-60 it was > 50 µM (inactive); in the assay with HOP-92, > 50 µM (inactive). Besides, the GI50 in the assay on K562 was 18.6 µM (inactive); in the assay on KM12, 35.6 µM (inactive); in the assay with MOLT-4 it was 11.1 µM (inactive); in the assay on NCI-H23, > 50 µM (inactive); in the assay with NCI-H460, 40.8 µM (inactive); in the assay on NCI/ADR-RES, > 50 µM (inactive). Moreover, the GI50 is > 50 µM (inactive) in the assay with OVCAR-5; 18.1 µM (inactive) in the assay with RPMI-8226; 29.5 µM (inactive) in the assay with SF-268; > 50 µM (inactive) in the assay with SN12C; > 50 µM (inactive) in the assay on SNB-19; 28.5 µM (inactive) with SW-620. Besides, the GI50 in the assay with UACC-257 and in the assay on UACC-62 was > 50 µM (inactive) each time.
Consider `O=C(/C=C/c1cccc2ccccc12)c1ccccc1`, for which the GI50 was 12.2 µM (inactive) with CAKI-1; 15.7 µM (inactive) with HCC 2998; 10.3 µM (inactive) in the assay on HCT-116; 6.85 µM in the assay on HCT-15; 2.88 µM (inactive) in the assay on HL-60; 18.3 µM (inactive) in the assay on HOP-92. Also, the GI50 with K562 was 2.74 µM (inactive); in the assay on KM12 it was 4.71 µM (inactive); with MOLT-4, 3.94 µM (inactive); in the assay on NCI-H23 it was 13.7 µM (inactive); in the assay on NCI-H460 it was 16.1 µM (inactive); in the assay on NCI/ADR-RES, 14 µM (inactive). Besides, the GI50 is 13.8 µM (inactive) in the assay on OVCAR-5; 2.31 µM (inactive) with RPMI-8226; 16.5 µM (inactive) in the assay on SF-268; 7.89 µM (inactive) in the assay on SN12C; 14.5 µM (inactive) in the assay with SNB-19; 4 µM (inactive) with SW-620. The GI50 in the assay with UACC-257 is 15 µM (inactive); in the assay on UACC-62 it was 11.7 µM (inactive).
In the case of `COc1ccc(CCC(=O)OC(C)[C@H](NC(=O)[C@@H](CC(C)C)N(C)C(=O)[C@@H]2CCCN2C(=O)C(C)O)C(=O)OCc2ccccc2)cc1` (stereo not given in full) (H-[ξLac]P[dNMeL][Thr(3ξ)](Propanoyl(3-(4-MeO-Ph)))-OBn), the GI50 with CAKI-1 was > 100 µM (inactive); in the assay with HCC 2998, 40.4 µM (inactive); with HCT-116, 43.7 µM (inactive); in the assay with HCT-15, 32.3 µM; in the assay on HL-60, 28.2 µM (inactive); in the assay on HOP-92, 19.1 µM (inactive). Further, the GI50 in the assay on K562 is 27.8 µM (inactive); in the assay with KM12, 27.9 µM (inactive); in the assay on MOLT-4, 24.3 µM (inactive); in the assay with NCI-H23 it was 41.4 µM (inactive); with NCI-H460 it was 64.4 µM (inactive); in the assay with NCI/ADR-RES it was 27.5 µM (inactive). The GI50 was > 100 µM (inactive) in the assay with OVCAR-5; 28.7 µM (inactive) with RPMI-8226; 31.5 µM (inactive) with SF-268; 34.9 µM (inactive) in the assay on SN12C; 66.2 µM (inactive) in the assay on SNB-19; 32.3 µM (inactive) in the assay on SW-620. The GI50 is 18.4 µM (inactive) with UACC-257 and 19.2 µM (inactive) with UACC-62.
Take `O=C1C(CN2CCCC2)CCCC1CN1CCCC1` (stereo not given): the GI50 in the assay with CAKI-1 was 1.64 µM (inactive); in the assay with HCC 2998 it was 18.3 µM (inactive); in the assay with HCT-116, 1.8 µM (inactive); in the assay on HCT-15, 2.19 µM; with HL-60 it was 0.326 µM (active); with HOP-92 it was 0.229 µM (active). In addition, the GI50 in the assay on K562 is 0.206 µM (active); in the assay on KM12, 19.7 µM (inactive); in the assay on MOLT-4, 0.258 µM (active); with NCI-H23 it was 1.95 µM (inactive); in the assay with NCI-H460, 22.8 µM (inactive); in the assay on NCI/ADR-RES, 6.1 µM (inactive). Also, the GI50 in the assay on OVCAR-5 was 5.98 µM (inactive); with RPMI-8226, 0.9 µM (active); in the assay with SF-268 it was 25.8 µM (inactive); in the assay with SN12C, 17.1 µM (inactive); in the assay with SNB-19, > 100 µM (inactive); in the assay with SW-620 it was 0.129 µM (active). Besides, the GI50 was 2.1 µM (inactive) in the assay on UACC-257 and 16.9 µM (inactive) in the assay with UACC-62.
With `CC(C)(C)CC(C)(C)c1ccc(O)c(C[N+](C)(C)[O-])c1`, the GI50 was > 100 µM (inactive) with CAKI-1; 31.9 µM (inactive) in the assay with HCC 2998; 98.6 µM (inactive) in the assay with HCT-116; more than 100 µM with HCT-15; 33.3 µM (inactive) in the assay with HL-60; 77.4 µM (inactive) in the assay with HOP-92. In addition, the GI50 in the assay with K562 is 74.8 µM (inactive); with KM12 it was > 100 µM (inactive); in the assay with MOLT-4, 53.6 µM (inactive); with NCI-H23, > 100 µM (inactive); with NCI-H460 it was > 100 µM (inactive); with NCI/ADR-RES, > 100 µM (inactive). For the same compound, the GI50 in the assay with OVCAR-5 is > 100 µM (inactive); in the assay with RPMI-8226, 62.2 µM (inactive); in the assay on SF-268, 85.5 µM (inactive); in the assay on SN12C it was > 100 µM (inactive); in the assay on SNB-19, > 100 µM (inactive); in the assay on SW-620 it was > 100 µM (inactive). Also, the GI50 with UACC-257 and in the assay with UACC-62 was > 100 µM (inactive) each time.
